The values that follow come from article PMC5341405, “Lapachol, a compound targeting pyrimidine metabolism, ameliorates experimental autoimmune arthritis” (Arthritis Research & Therapy, 2017).

Read-outs that look alike come from different tables or passages of the source.

A short description of series [1]: Pharmacokinetics after i.v. administration. Type of series: in vivo, Wistar rats. As to conditions: for Vd: read-out: Vdss. The method, then:
For administration to Wistar rats, LAP was dissolved in DMSO:Tween 80:glucose 5% in a proportion of 15:5:80 (v/v/v), resulting in a solution of 1 mg/ml (for intravenous (i.v.) administration) and another of 5 mg/ml (for oral administration). LAP was administered to rats as an i.v. bolus dose at 2 mg/kg (n = 7) and at two oral doses of 10 (n = 8) and 25 mg/kg (n = 6). LAP salt was administered as i.v. (2 mg/kg, n = 6) and oral doses (30 mg/kg equivalent to 27.5 mg/kg of LAP, n = 8). The i.v. doses were injected into the lateral tail vein, and oral doses were given by gavage. The doses were chosen based on previous toxicological and pharmacodynamic studies. At predetermined time points (30 min before dosing and at 0.08, 0.25, 0.5, 1, 2, 4, 6, 8, 12, and 24 h) after LAP i.v. administration, blood samples (200–250 μl) were withdrawn into heparinized tubes via puncture of the lateral tail vein, opposite to the vein used for drug dosing. The same procedure was carried out after oral administration of LAP, with blood sampling at 0.25, 0.5, 1, 1.5, 2, 3, 6, 12, 24, and 30 h. After LAP sodium salt i.v. and oral dosing, blood samples were harvested up to 10 and 12 h, respectively. Plasma was obtained by centrifugation of blood samples (6800 × g, at 4 °C for 10 min) and stored at –80 °C until analysis by UPLC-MS/MS.
LAP and LAP sodium salt pharmacokinetic parameters after i.v. and oral administration were determined from individual plasma profiles by a noncompartmental approach (NCA). The peak plasma concentration (Cmax) and the time of maximum concentration (Tmax) were obtained by visual inspection of the data from the plasma concentration–time curve after oral dosing. Pharmacokinetic parameters such an elimination rate constant (λ), area under the curve (AUC0–∞), clearance (CLtot), half-life (t1/2), volume of distribution (Vdss), mean residence time (MRT), and bioavailability (Fabs) were determined using classical equations. The compartmental analyses were performed using SCIENTIST v.2.0.1 software (MicroMath®, USA). One- and two-compartment models with or without weighting schemes were evaluated. The best model to fit the data was chosen based on the random distribution of residuals, the correlation coefficient, and the model selection criterion (MSC) given by the software.
The individual plasma profiles of LAP and LAP sodium salt after i.v. administration were best described by a two-compartmental open model. Plasma profiles after oral administration with two different doses of LAP and one dose of LAP sodium salt were best described by the one-compartmental model.
LAP concentration in plasma samples was determined by a validated (FDA, US Food and Drug Administration, 2001) UPLC-MS/MS method. Analyses were run on an Acquity UPLC BEH (Waters Acquity™) C18 column (2.1 × 50 mm, 1.7 μm particle size), with a flow of 300 μl/min at 35 °C. A gradient constituted of water (A) and acetonitrile (B) acidified with 0.1% acetic acid was used as follows: 0 min (90% A), 1 min (75% A), 7 min (50% A), 8.5 min (0% A) and 9.5 min (100% A). For the triple quadrupole, MS parameters were set as follows: capillary voltage (2.20 kV); extractor (3.0 V) source temperature (150 °C), desolvation temperature (300 °C), cone gas flow (50 l/h), and desolvation gas flow (700 l/h). For quantification, a multiple reaction monitoring method (MRM) was applied. For LAP, the transition of m/z 243 > 187 using cone energy of 24 V and collision energy of 19 V was determined as most appropriate for quantification (Calibration curves between 1 and 20,000 ng/ml of LAP, R > 0.99, low quantification limit of 1 ng/ml, and detection limit of 0.1 ng/ml).
A total of 200 μl cold acetonitrile containing internal standard (2-methyl-amino-lapachol) at 5 μg/ml and 0.05% trifluoroacetic acid was added to 100 μl of plasma and vortexed for 20 s. Precipitated protein was removed by centrifugation (6800 × g at 4 °C for 10 min). […]

The test system of series [2] is collagen-induced arthritis (CIA) in DBA1/J mice. As to the kind of experiment: Collagen-induced arthritis (CIA). Type of series: in vivo. The method, then:
Male DBA/1 J mice were injected i.d. at the base of the tail with 200 μg bovine type II collagen (CII; a gift from Dr. David D. Brand, University of Tennessee Health Science Center) emulsified in Freund’s complete adjuvant (CFA) on day 0. Mice were boosted i.d. with CII (200 μg emulsified in Freund’s incomplete adjuvant (IFA)) on day 21. Mice were monitored daily for signs of arthritis. Scores were assigned based on erythema, swelling, or ankylosis present in each paw on a scale of 0 to 3, giving a maximum score of 12 per mouse. After arthritis induction, mice were treated orally with LAP (3 mg/kg and 10 mg/kg) or LEF (3 mg/kg) or saline daily. The clinical score was addressed every day after collagen boost. All mice were euthanized for histologic assessment of the hind limbs 4 weeks after the boost.
Femur-tibial joints were collected 4 weeks after CII boost, fixed in 4% (vol/vol) buffered formalin and decalcified in 10% EDTA for 2–3 weeks. The tissues were then trimmed, dehydrated in ethanol, and embedded in paraffin for the preparation of the slides. Histological assessment was carried out following routine staining. Joint sections were stained with hematoxylin and eosin (H&E) to analyze synovitis (inflammatory cell influx and synovial hyperplasia) or Safranin-O to visualize proteoglycan depletion and cartilage destruction. The severity of the joint damage was scored according to the criteria described by Wang et al.: 0 = no destruction; 1 = minimal erosion; 2 = slight to moderate erosion in a limited area; 3 = more extensive erosion; 4 = general destruction.
Interleukin (IL)-17 and interferon (IFN)-γ cytokines were measured by enzyme-linked immunosorbent assay (ELISA) from hind paw homogenate of an individual mouse using antibodies according to the manufacturer’s instructions (R&D Systems, Minneapolis, MN, USA). The results were expressed as pg of cytokine/mg of tissue.
Myeloperoxidase (MPO) activity in tissue homogenates was used as an index of neutrophil infiltration into paws from CIA mice as previously described.

Another series relates to DHODH. Details: method as in PMID 10658902. As to conditions: cited from earlier work.
Where [3] appears, read: Wistar, rat, plasma, iv, 2 mg/kg, 2 mg/kg i.v., 2-Comp.
Where [4] appears, read: Wistar, rat, plasma, iv, 2 mg/kg, 2 mg/kg i.v., NCA.

In series [1] (2 mg/kg i.v., 2-Comp), `CC(C)=CCC1=C(O)C(=O)c2ccccc2C1=O` [LAP, 2-hydroxy-3-(3methyl-2-butenyl)-1,4-naphthoquinone] displayed a CLtot of 0.667 ± 0.167 mL/min/kg, a Vc of 0.11 ± 0.03 L/kg, an a of 10.0 ± 4.1 µg/mL and a b of 8.8 ± 3.1 µg/mL. Moreover, in series [1] (2 mg/kg i.v., 2-Comp), the t1/2ß is given as 3.7 ± 0.5 h, the t1/2α was determined as 0.6 ± 0.4 h, the ß was 0.19 ± 0.03 h⁻¹ and the α stood at 1.76 ± 1.52 h⁻¹. In series [1] (2 mg/kg i.v., NCA), this compound displayed a CLtot of 0.667 ± 0.167 mL/min/kg and a λ of 0.18 ± 0.04 h⁻¹. In series [1] (setting [3]), the AUC(0-inf) was 56400 ± 21600 ng·h/mL and the Vd was 0.17 ± 0.03 L/kg. For the same compound, in series [1] (setting [4]), the total exposure AUC(0-inf) amounted to 56100 ± 20100 ng·h/mL, the MRT was 5.3 ± 1.2 h and the Vd turned out to be 0.19 ± 0.03 L/kg. Besides, in series [1] (Wistar, rat, plasma, iv, 2 mg/kg, 2 mg/kg i.v., NCA, read-out: t1/2 (converted)), the half-life is 4.1 ± 1.1 h. The linearity of pharmacokinetics result in series [1] (dose range investigated 2–25 mg/kg (i.v. and oral)) is “Linear pharmacokinetics”. The same compound registered a total clearance in series [1] (intravenous administration, rats) of 0.67 ± 0.17 mL/min/kg. Also, the “severity of arthritis (clinical score and number of affected paws)” value in series [2] (3 mg/kg and 10 mg/kg orally daily, both doses) was “markedly attenuated the severity of arthritis”. The “IL-17A levels in hind paws” value in series [2] (dose of 10 mg/kg orally daily, 4 weeks after boost, ELISA) is “significant reduction in IL-17A levels”. Moreover, the “MPO activity in hind paws (neutrophil infiltration)” value in series [2] (orally daily, 4 weeks after boost, vs vehicle-treated CIA mice) is “reduced MPO activity”. Moreover, the “histopathological features of arthritis severity (H&E, Safranin-O, knee joint)” value in series [2] (orally daily, 4 weeks after boost, vs vehicle-treated group) was “markedly reduced all histopathological features of arthritis severity”. The “inhibition of DHODH activity” value with DHODH is “can inhibit DHODH activity”.
